From US9603833B2, “Benzene or thiophene derivative and use thereof as VAP-1 inhibitor” (R-Tech Ueno, Ltd., priority 2008, dated 2017)
Where a name gives a salt, the structure may show the parent alone.

What was measured:
Type in all cases: biochemical
human MAO-A = human MAO-A (Homo sapiens (Human), UniProt P21397); experiment: Inhibitory effect on human MAO-A, MAO Detection Kit (Fluoro MAO); details: gene recombinant human MAO-A; fluorescence at 590 nm; 37° C., 2 hrs; read-out: MAO-A inhibition IC50
Chain of human MAO-A (P21397 whole entry): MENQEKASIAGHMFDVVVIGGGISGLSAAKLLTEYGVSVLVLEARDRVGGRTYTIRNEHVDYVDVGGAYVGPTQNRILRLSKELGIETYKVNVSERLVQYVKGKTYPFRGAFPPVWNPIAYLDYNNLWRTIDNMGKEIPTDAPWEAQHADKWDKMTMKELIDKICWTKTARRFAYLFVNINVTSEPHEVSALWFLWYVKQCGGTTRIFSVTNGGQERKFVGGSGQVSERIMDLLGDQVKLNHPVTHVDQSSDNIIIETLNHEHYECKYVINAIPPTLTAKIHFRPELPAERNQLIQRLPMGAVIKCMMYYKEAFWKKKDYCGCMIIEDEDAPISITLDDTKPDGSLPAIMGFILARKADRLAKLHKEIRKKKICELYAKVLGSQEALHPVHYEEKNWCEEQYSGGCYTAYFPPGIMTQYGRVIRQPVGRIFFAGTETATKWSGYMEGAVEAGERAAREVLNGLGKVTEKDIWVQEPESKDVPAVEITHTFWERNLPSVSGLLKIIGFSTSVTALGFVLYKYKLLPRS
Protocol: (§1) The compounds of the present invention obtained in the Production Examples were examined for the inhibitory effect on human monoamineoxydase enzymes (MAO-A and MAO-B) by the following method.
(§2) Gene recombinant human MAO-A and MAO-B enzymes were purchased from Sigma Ltd. The human MAO-A and MAO-B activities were measured using MAO Detection Kit (Fluoro MAO, Cell Technology Inc.). Assay was performed in a 96-well plate. 1× Reaction buffer (40 μl) was added to each well, and 50 μl (5 mg/ml) of MAO-A or MAO-B was added. Then, test compound solutions (final concentration 1×10^−4-1×10^−10 mol/l) (10 μl) were added and the mixtures were incubated at 37° C. for 20 mins. Reaction cocktail (100 μl) was added, and the mixtures (final volume 200 μl) were incubated at 37° C. for 2 hrs. Thereafter, the fluorescence at 590 nm was detected with an excitation wavelength of 570 nm using a multispectro microplate reader (Varioskan, Thermo Fisher Scientific K.K.).

human MAO-B = human MAO-B (Homo sapiens (Human), UniProt P27338); experiment: Inhibitory effect on human MAO-B, MAO Detection Kit (Fluoro MAO); details: gene recombinant human MAO-B; fluorescence at 590 nm; 37° C., 2 hrs; read-out: MAO-B inhibition IC50
Chain of human MAO-B (P27338 whole entry): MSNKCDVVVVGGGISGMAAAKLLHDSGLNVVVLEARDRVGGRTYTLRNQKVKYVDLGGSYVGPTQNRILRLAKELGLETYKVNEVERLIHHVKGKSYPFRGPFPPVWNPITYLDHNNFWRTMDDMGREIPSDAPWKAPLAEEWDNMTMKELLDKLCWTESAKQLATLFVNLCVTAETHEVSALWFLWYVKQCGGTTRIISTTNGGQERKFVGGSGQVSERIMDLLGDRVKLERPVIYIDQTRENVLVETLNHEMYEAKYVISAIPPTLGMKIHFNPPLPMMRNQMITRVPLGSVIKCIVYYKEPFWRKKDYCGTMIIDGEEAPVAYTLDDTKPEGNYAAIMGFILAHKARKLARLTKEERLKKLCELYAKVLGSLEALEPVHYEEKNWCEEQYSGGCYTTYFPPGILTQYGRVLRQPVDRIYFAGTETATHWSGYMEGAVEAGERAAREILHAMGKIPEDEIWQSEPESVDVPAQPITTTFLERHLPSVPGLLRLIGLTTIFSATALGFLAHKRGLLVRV
Protocol: as §1, §2

[1] = target: human VAP-1 enzyme (SSAO) (Homo sapiens (Human), UniProt Q16853); experiment: Inhibitory effect on human VAP-1 enzyme (SSAO), radiochemical-enzyme assay using 14C-benzylamine; details: human VAP-1 expressed in a cell, cell extract; 14C-benzylamine 1×10^−5 mol/L; 37° C., 2 hours
Chain of human VAP-1 enzyme (SSAO) (Q16853 whole entry): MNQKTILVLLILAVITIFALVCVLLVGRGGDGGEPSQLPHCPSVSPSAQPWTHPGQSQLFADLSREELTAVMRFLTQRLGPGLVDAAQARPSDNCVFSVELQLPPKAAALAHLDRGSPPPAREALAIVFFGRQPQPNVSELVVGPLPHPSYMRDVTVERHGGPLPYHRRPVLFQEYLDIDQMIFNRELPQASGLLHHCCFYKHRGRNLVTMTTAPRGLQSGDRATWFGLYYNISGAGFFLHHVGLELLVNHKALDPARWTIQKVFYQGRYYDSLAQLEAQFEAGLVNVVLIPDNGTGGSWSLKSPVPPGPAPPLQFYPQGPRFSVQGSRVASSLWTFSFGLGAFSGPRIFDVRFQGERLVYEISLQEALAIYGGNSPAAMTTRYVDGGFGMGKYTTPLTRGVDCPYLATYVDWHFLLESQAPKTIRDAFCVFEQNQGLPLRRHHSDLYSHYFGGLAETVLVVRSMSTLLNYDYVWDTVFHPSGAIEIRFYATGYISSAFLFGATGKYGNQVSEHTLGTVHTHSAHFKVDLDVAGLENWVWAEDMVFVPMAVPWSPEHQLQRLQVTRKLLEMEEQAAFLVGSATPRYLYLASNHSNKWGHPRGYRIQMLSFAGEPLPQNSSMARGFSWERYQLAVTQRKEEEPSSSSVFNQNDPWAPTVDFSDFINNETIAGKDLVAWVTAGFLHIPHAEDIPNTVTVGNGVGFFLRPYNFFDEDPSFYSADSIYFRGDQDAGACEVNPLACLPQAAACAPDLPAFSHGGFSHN
Protocol: (§3) The compounds of the present invention obtained in Production Examples were examined for the inhibitory effect on human and rat VAP-1 enzyme (SSAO) by the following method.
(§4) The VAP-1 enzyme (SSAO) activity in both human and rat was measured by a radiochemical-enzyme assay using ^14C-benzylamine as an artificial substrate. Human or rat VAP-1 was cloned from the cDNA library and expressed in a cell. The cell extract was preincubated with a test compound solution (final concentration 1×10^−7-1×10^−10 mol/L) at room temperature for 20 minutes. Then, ^14C-benzylamine (final concentration 1×10^−5 mol/L) was added, and the mixture was incubated at a final volume of 200 μL at 37° C. for 2 hours. The enzyme reaction was stopped by addition of 2 mol/L (200 μL) citric acid. The oxidation product was extracted with 1 mL toluene/ethyl acetate (1:1), and the radioactivity thereof was measured by a liquid scintillation counter.

rat VAP-1 enzyme (SSAO) = rat VAP-1 enzyme (SSAO) (Rattus norvegicus (Rat), UniProt O08590); experiment: Inhibitory effect on rat VAP-1 enzyme (SSAO), radiochemical-enzyme assay using 14C-benzylamine; details: rat VAP-1 expressed in a cell, cell extract; 14C-benzylamine 1×10^−5 mol/L; 37° C., 2 hours
Chain of rat VAP-1 enzyme (SSAO) (O08590 whole entry): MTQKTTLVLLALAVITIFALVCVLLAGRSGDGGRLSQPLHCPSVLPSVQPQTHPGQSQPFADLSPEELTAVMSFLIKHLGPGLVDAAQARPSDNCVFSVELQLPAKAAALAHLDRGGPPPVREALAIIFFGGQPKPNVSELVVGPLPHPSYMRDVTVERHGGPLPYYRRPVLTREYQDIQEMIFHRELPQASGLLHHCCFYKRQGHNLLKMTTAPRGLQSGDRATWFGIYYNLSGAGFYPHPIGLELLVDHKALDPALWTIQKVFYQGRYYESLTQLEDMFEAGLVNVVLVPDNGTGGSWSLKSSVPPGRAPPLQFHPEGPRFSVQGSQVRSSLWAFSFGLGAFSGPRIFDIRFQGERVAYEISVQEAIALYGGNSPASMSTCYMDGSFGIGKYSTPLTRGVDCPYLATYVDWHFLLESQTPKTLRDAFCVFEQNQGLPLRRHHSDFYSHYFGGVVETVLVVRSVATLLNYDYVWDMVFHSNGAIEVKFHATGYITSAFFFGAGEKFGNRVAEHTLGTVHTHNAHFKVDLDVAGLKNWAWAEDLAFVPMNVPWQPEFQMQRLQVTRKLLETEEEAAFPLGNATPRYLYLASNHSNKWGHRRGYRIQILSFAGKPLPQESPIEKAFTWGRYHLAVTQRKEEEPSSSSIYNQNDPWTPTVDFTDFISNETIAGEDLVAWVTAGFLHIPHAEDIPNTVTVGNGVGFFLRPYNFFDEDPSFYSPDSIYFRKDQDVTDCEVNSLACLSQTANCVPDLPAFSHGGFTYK
Protocol: as §3, §4

IC50 (human MAO-A) | IC50 (human MAO-B) | IC50 [1] | IC50 (rat VAP-1 enzyme (SSAO)) | Structure (SMILES)
> 100000 nM | > 100000 nM |  |  | CN1CCN(c2ccc(CCc3ccc(CC(=O)NN)cc3)cc2)CC1 [Production Example 35, 2-(4-{2-[4-(4-methylpiperazin-1-yl)phenyl]ethyl}phenyl)acetohydrazide trihydrochloride]
> 100000 nM | > 100000 nM | 9.8 nM | 29.4 nM | NNC(=O)Cc1ccc(CCc2cccc(N3CCNCC3)n2)cc1 [Production Example 51, 2-{4-[2-(6-piperazin-1-ylpyridin-2-yl)ethyl]phenyl}acetohydrazide tetrahydrochloride]
> 100000 nM | > 100000 nM | 3.2 nM | 1.4 nM | CC(=O)N1CCN(c2ccc(CCc3ccc(CC(=O)NN)cc3)nc2)CC1 [Production Example 87, 2-(4-{2-[5-(4-acetylpiperazin-1-yl)pyridin-2-yl]ethyl}phenyl)acetohydrazide trihydrochloride]
 |  | 0.9 nM | 0.7 nM | CC(=O)N1CCN(c2ccc(CCc3ccc(COC(=O)NN)cc3F)nc2)CC1 [Production Example 113, 4-{2-[5-(4-acetylpiperazin-1-yl)pyridin-2-yl]ethyl}-3-fluorobenzyl hydrazinecarboxylate trihydrochloride]
 |  | 2 nM | 1.2 nM | CC(=O)N1CCN(c2ccc(CCc3ccc(CNC(=O)NN)cc3F)nc2)CC1 [Production Example 114, N-(4-{2-[5-(4-acetylpiperazin-1-yl)pyridin-2-yl]ethyl}-3-fluorobenzyl)hydrazinecarboxamide trihydrochloride]
 |  | 4 nM | 10.1 nM | CC(=O)N1CCN(c2ccc(CCc3ccc(CCOC(=O)NN)s3)nc2)CC1 [Production Example 115, 2-(5-{2-[5-(4-acetylpiperazin-1-yl)pyridin-2-yl]ethyl}thiophen-2-yl)ethyl hydrazinecarboxylate]
 |  | 9.5 nM | 9.8 nM | CC(=O)N1CCN(c2ccc(CCc3ccc(C(=O)NN)s3)nc2)CC1 [Production Example 116, 5-{2-[5-(4-acetylpiperazin-1-yl)pyridin-2-yl]ethyl}thiophene-2-carbohydrazide]
 |  | 18.7 nM | 2.7 nM | CC(=O)N1CCN(c2ccc(CCc3ccc(CCNC(=O)NN)s3)nc2)CC1 [Production Example 117, N-[2-(5-{2-[5-(4-acetylpiperazin-1-yl)pyridin-2-yl]ethyl}thiophen-2-yl)ethyl]hydrazinecarboxamide]
 |  | 4.7 nM | 8.7 nM | CC(=O)N1CCN(c2ccc(CCc3ccc(CCC(=O)NN)cc3)nc2)CC1 [Production Example 119, 3-(4-{2-[5-(4-acetylpiperazin-1-yl)pyridin-2-yl]ethyl}phenyl)propanehydrazide trihydrochloride]
 |  | 3.7 nM | 0.6 nM | CC(=O)N1CCN(c2ccc(CCc3ccc(CC(=O)NN)s3)nc2)CC1 [Production Example 120, 2-(5-{2-[5-(4-acetylpiperazin-1-yl)pyridin-2-yl]ethyl}thiophen-2-yl)acetohydrazide]
 |  | 2.2 nM | 1.6 nM | CC(=O)N1CCN(c2ccc(CCc3csc(CCC(=O)NN)c3)nc2)CC1 [Production Example 121, 3-(4-{2-[5-(4-acetylpiperazin-1-yl)pyridin-2-yl]ethyl}thiophen-2-yl)propanehydrazide trihydrochloride]
 |  | 6.6 nM | 8 nM | CC(=O)N1CCN(c2ccc(CCc3ccc(CCOC(=O)NN)cc3)nc2)CC1 [Production Example 122, 2-(4-{2-[5-(4-acetylpiperazin-1-yl)pyridin-2-yl]ethyl}phenyl)ethyl hydrazinecarboxylate trihydrochloride]
 |  | 4.7 nM | 5.5 nM | CC(=O)N1CCN(c2ccc(CCc3csc(CCCOC(=O)NN)c3)nc2)CC1 [Production Example 124, 3-(4-{2-[5-(4-acetylpiperazin-1-yl)pyridin-2-yl]ethyl}thiophen-2-yl)propylhydrazinecarboxylate]

Structure (SMILES) | IC50 (human MAO-A) | IC50 (human MAO-B) | IC50 [1] | IC50 (rat VAP-1 enzyme (SSAO))
NNC(=O)Cc1ccc(CCc2ccnc(N3CCNCC3)c2)cc1 [Production Example 105, 2-{4-[2-(2-piperazin-1-ylpyridin-4-yl)ethyl]phenyl}acetohydrazide tetrahydrochloride] | > 100000 nM | > 100000 nM | 7.3 nM | 7.2 nM
